According to patent US20240261279A1, “METHOD FOR TREATING LUNG CANCER” (priority 2021, published 2024):

System: nuclear protein kinase C-δ
Test: confocal-based high-content screening measuring the quantity of nuclear protein kinase C-δ in GR10 cells
Format: cell-based
Settings: 24 hours treatment, fluorescence intensity (FIG. 3)
Text: Please refer to FIG. 1. […] To investigate the growth-inhibiting effect of the nuclear protein kinase C-δ inhibitor of the present disclosure on the non-small-cell lung cancer cells resistant to the epidermal growth factor receptor-tyrosine kinase inhibitor, the present experimental example utilizes the screening system shown in FIG. 1 to measure whether the nuclear protein kinase C-δ inhibitor of the present disclosure can inhibit the production of nuclear protein kinase C-δ in the cancer cells.
In the present experimental example, gefitinib-resistant non-small-cell lung cancer cells (gefitinib-resistant 10 cells, hereinafter “GR10 cells”) are used as the cell model. In Example 1 to Example 4, GR10 cells are respectively treated with nintedanib esylate (hereinafter “Nin”), ponatinib (hereinafter “Pon”), regorafenib (hereinafter “Reg”) or cobimetinib (hereinafter “Cob”) for 24 hours, and the quantity of nuclear protein kinase C-δ within the GR10 cells is determined by confocal-based high-content image analysis. On the other hand, the present experimental example further includes Comparative Example 1 and Comparative Example 2. […]
Please refer to FIG. 2A to FIG. 2F and FIG. 3. […] FIG. 3 is a comparative diagram of fluorescence intensity of the GR10 cells after treatment of Example 1 to Example 4, Comparative Example 1 and Comparative Example 2. […]

Cc1ccc(C(=O)Nc2ccc(CN3CCN(C)CC3)c(C(F)(F)F)c2)cc1C#Cc1cnc2cccnn12 [Pon, ponatinib]
concentration at which a great ability to inhibit nuclear protein kinase C-δ is performed: greater than 0.1 μM
